# Measurements reported in patent publication US20230124374A1, “COMPOSITIONS AND METHODS FOR EYE HEALTH COMPRISING VERY LONG CHAIN FATTY ACIDS” (BAUSCH + LOMB IRELAND LIMITED, priority 2020, published 2023).
# Key:
# [1] = single-dose bioavailability study, gavage feeding of 32:6 n-3 loaded liposomes, GC-MS of tissue lipids; assay type: in vivo, wild-type (WT) C57BL/6J mice
# Protocol: FIGS. 1A and 1B show wild-type (WT) mice single-dose bioavailability studies: (1A) Serum absorption kinetics of C32 acid (6n-3) (“32:6n-3”) after single-dose gavage feeding of 6 mg/mouse (n=4 mice/time point) and (1B) retina and RPE uptake of 32:6 n-3 after single-dose gavage feeding. No VLCPUFAs were detected in liver, brain, or RBC membranes at any time point. Data are presented as mean±SEM (***P<0.005; **P<0.01; *P<0.05).
# Three month old wild-type (WT) C57BL/6J mice (22±3 g) were each gavage fed 6 mg per day of C32 acid (6n-3) (“32:6 n-3”) loaded VLCPUFA liposomes (0.1 mL) (250 mg/kg body weight) prepared as disclosed in Gorusupudi et al. PNAS 118(6), e2017739118 (2021), which is incorporated herein by reference in its entirety. The mice were killed 0, 2, 4, 8, and 24 h after gavage (n=4 mice/time interval) to harvest the blood and other tissues. Eyes were dissected under a microscope to separate the retina from the RPE. One pair of retinas/mouse was used for lipid extraction, and blood was centrifuged for 5 minutes at 7,500 rpm to separate serum from RBCs. Serum, RBCs, brain, liver, retina, and RPE were used for lipid extractions and GC-MS analysis.
# (§1) On the other hand, 32:6 n-3 remained undetectable in liver, brain, and red blood cell (RBC) membranes throughout the 24 h period. Longer-term absorption was studied by gavage feeding VLCPUFA-loaded liposomes (0.1 mL) to WT (22±3 g) and conditional KO mice developed with an intention to ablate Elov14 expression completely in both rods and cones (E4cKO mice) (23±3 g) for 15 d with 0, 1, and 2 mg/d 32:6 n-3 (n=6 mice/group). Mice were fed each morning with liposomes prepared as above containing 0 mg/d (0 mg/kg BW), 1 mg/d (40 mg/kg BW), or 2 mg/d (80 mg/kg BW) of 32:6 n-3. Mice were killed at the end of the experiments, and retina, RPE, liver, serum, RBCs, and brain tissues were harvested, extracted for lipids, and analyzed by GC-MS.
# [2] = repeated-dose (15 d) bioavailability study, gavage feeding of 32:6 n-3 loaded liposomes, GC-MS of tissue lipids; assay type: in vivo, WT mice; conditions: 15 d gavage
# Protocol: FIGS. 2A and 2B show WT mice repeated-dose bioavailability studies: (2A) Accumulation of 32:6 n-3 in mouse retina and RPE after 15 d of gavage feeding (n=6 mice/group) and (2B) Bioaccumulation of 32:6n-3 in serum, RBC, and liver after 15 d of gavage feeding. […] Data are presented as mean±SEM (***P<0.005; **P<0.01; N.S.: not significant; N.D.: not detectable).
# as §1
# [3] = phospholipid analysis of retina and RPE by LC-MS/MS after 15 days of gavage feeding; assay type: in vivo, WT mice; conditions: 15 days gavage, 2 mg/day, supplemented WT animals
# Protocol: FIGS. 3A and 3B show phospholipid analysis of wild type (WT) mice after 15 days of gavage feeding of VLCPUFA 32:6n-3 (2 mg/day): (3A) Retina and (3B) RPE. Data presented as mean±SEM (n=8 mice/group) (p values: *p<0.05; N.S.: not significant; N.D.: not detectable).
# (§2) Retina and RPE were extracted for phospholipid analysis using liquid chromatography-tandem MS (LC-MS/MS), and increases in phosphatidylcholine (PC)-22:6/32:6 were detected in the retina and RPE in the supplemented WT animals (FIGS. 3A and 3B). Retinal and RPE 32:6 n-3 levels in the E4cKO mice were one-third and one-half of the levels in the age-matched WT mice, respectively (FIG. 4A).
# [4] = long-term uptake of 32:6 n-3 in Elov14 rod-cone conditional KO mice, 15 d gavage feeding; assay type: in vivo, E4cKO mice; conditions: 2 mg/d
# Protocol: FIGS. 4A and 4B show long-term uptake of 32:6n-3 (2 mg/d per mouse) in Elov14 rod-cone conditional KO (E4cKO) mice: (4A) Accumulation of 32:6 n-3 in E4cKO mouse retinas and RPE in comparison to age-matched WT mice after 15 d of gavage feeding (n=6 mice/group) and (4B) Accumulation of 32:6n-3 in liver and RBCs in E4cKO mice in comparison to age-matched WT mice after 15 d of gavage feeding. Data are presented as mean±SEM (**P<0.01; N.S.: not significant; N.D.: not detectable).
# as §1, §2
# [5] = levels as high as 800.0 mg; cited from earlier work
# [6] = single gavage dose 6 mg/mouse, 4 to 8 h after gavage
# [7] = single gavage dose 6 mg/mouse, throughout the 24 h period
# [8] = 32:6 n-3-fed groups versus control mice (undetectable)
# [9] = versus undetectable levels at 0 mg/d
compound,measurement,setting,value
"CC/C=C\C/C=C\C/C=C\C/C=C\C/C=C\C/C=C\CCCCCCCCCCCCC(=O)O [32:6 n-3, C32 acid (6n-3)]",time after oral administration at which serum 32:6 n-3 became detectable,"[1]; single gavage dose 6 mg/mouse (250 mg/kg), serum",≤ 2 h
same,32:6 n-3 in the RPE,[1]; [6],significant increase
same,32:6 n-3 in the retina,[1]; [6],significant increase
same,serum 32:6 n-3 concentration course,"[1]; single gavage dose 6 mg/mouse, serum, over the next 24 h",reached a lower steady-state concentration
same,32:6 n-3 in brain,[1]; [7],undetectable
same,32:6 n-3 in liver,[1]; [7],undetectable
same,32:6 n-3 in red blood cell (RBC) membranes,[1]; [7],undetectable
same,VLCPUFAs in the brain,[2],no VLCPUFAs were ever detectable
same,total retinal VLCPUFAs,[2]; 1 mg/d group,0.535±0.06%
same,total retinal VLCPUFAs,[2]; 2 mg/d group,0.872±0.10%
same,32:6 n-3 in the liver,[2]; 2 mg/d group (only group with detectable levels),detectable
same,RBC VLCPUFAs,[2]; [8],significantly increased
same,serum VLCPUFAs,[2]; [8],significantly increased
same,increase of C32 acid (6n-3) level in RPE versus 0 mg/d controls,[2]; both fed groups (1 and 2 mg/d),sevenfold
same,increase of C32 acid (6n-3) level in the retina versus 0 mg/d controls,[2]; both fed groups (1 and 2 mg/d),more than twofold
same,phosphatidylcholine (PC)-22:6/32:6 in the RPE,[3],increases
same,phosphatidylcholine (PC)-22:6/32:6 in the retina,[3],increases
same,increase of 32:6 n-3 level in the retina relative to control-fed E4cKO mice,"[4]; 8-mo-old E4cKO mice, P<0.01",nearly fivefold increase
same,increase of 32:6 n-3 level in the RPE relative to control-fed E4cKO mice,"[4]; 8-mo-old E4cKO mice, P=0.001",27 fold
same,total retinal VLCPUFAs,[4]; E4cKO mice,0.088±0.02%
same,RBC 32:6 n-3,[4]; [9],became detectable
same,liver 32:6 n-3,[4]; [9],became detectable
vitamin E,adverse effects,[5],No adverse effects
